Measurements published in ChEMBL document CHEMBL5576057, “Discovery of DS44470011: An oral hypoxia-inducible factor prolyl hydroxylase inhibitor for the treatment of renal anemia” (Bioorg Med Chem Lett, 2024).
Activity calls are given as the source filed them. The rule behind the calls is not given here.

Test system: not listed separately
Experiment: Metabolic stability in Cynomolgous monkey assessed as compound remaining
Type: ADME, Macaca fascicularis
Conditions: cynomolgus monkey

Row | SMILES | Stability [%]
1 | Cc1nc(Cc2ccc(-c3ccccc3)cc2)nc(C(=O)NCC(=O)O)c1O | 90

Test system: not listed separately
Experiment: Volume of distribution at steady state in Cynomolgous monkey at 1 mg/kg,iv
Type: ADME, organism-based, Macaca fascicularis
Conditions: cynomolgus monkey, in vivo, read-out: Vdss

Row | SMILES | Vd [L/kg]
2 | Cc1nc(Cc2ccc(-c3ccccc3)cc2)nc(C(=O)NCC(=O)O)c1O | 0.06

Test system: Hep 3B2
Experiment: […] activity against human Hep3B cells assessed as increase of erythropoietin release by measuring effective concentration
Type: functional, cell-based
Conditions: not given

Row | SMILES | EC50 [µM]
3 | O=C(O)CNC(=O)c1nc(Cl)c2ccccc2c1O | 64
4 | Cc1nc(Cc2ccc(F)cc2)c(O)c(C(=O)NCC(=O)O)n1 | 51
5 | Cc1nc(C(C)c2ccc(-c3ccccc3)cc2)nc(C(=O)NCC(=O)O)c1O (racemic) | 16
6 | Cc1nc(Cc2ccc(-c3ccccc3)cc2)nc(C(=O)N[C@@H](C)C(=O)O)c1O | 14
7 | Cc1nc(Cc2ccc(C(C)(C)C)cc2)nc(C(=O)NCC(=O)O)c1O | 25
8 | Cc1nc(Cc2cccc(-c3ccccc3)c2)nc(C(=O)NCC(=O)O)c1O | 61
9 | O=C(O)CNC(=O)c1nc(Cc2ccc(-c3ccccc3)cc2)nc(C(F)F)c1O | 105
10 | Cc1nc(Cc2ccc(-c3ccccc3)cc2)nc(C(=O)NCC(=O)O)c1O | 8.4
11 | Cc1nc(Cc2ccc(C(F)(F)F)cc2)nc(C(=O)NCC(=O)O)c1O | 29
12 | Cc1nc(Cc2ccc(-c3ccccc3)cc2)nc(C(=O)NCC(=O)O)c1S | 67
13 | CCc1nc(Cc2ccc(-c3ccccc3)cc2)nc(C(=O)NCC(=O)O)c1O | 16
14 | Cc1nc(Cc2ccc(-c3ccccc3)cc2)c(O)c(C(=O)NCC(=O)O)n1 | 27
15 | Cc1nc(CCc2ccc(F)cc2)c(O)c(C(=O)NCC(=O)O)n1 | 36
16 | Cc1nc(C(=O)NCC(=O)O)c(O)c(-c2ccc(F)cc2)n1 | 108

Test system: not listed separately
Experiment: AUC in Cynomolgous monkey at 3 mg/kg,po
Type: ADME, organism-based, Macaca fascicularis
Conditions: cynomolgus monkey, in vivo

Row | SMILES | AUC [µg·h/mL]
17 | Cc1nc(Cc2ccc(-c3ccccc3)cc2)nc(C(=O)NCC(=O)O)c1O | 380

Test system: Cynomolgus monkey
Experiment: animal or person
Conditions: Macaca fascicularis, in Primates, po, 24 h

Row | SMILES | ED10 [mg/kg]
18 | O=C(O)CNC(=O)c1nc(Cl)c2ccccc2c1O | 13
19 | Cc1nc(Cc2ccc(-c3ccccc3)cc2)nc(C(=O)NCC(=O)O)c1O | 2.2

Test system: not listed separately
Experiment: Half life in Cynomolgous monkey at 1 mg/kg,iv
Type: ADME, organism-based, Macaca fascicularis
Conditions: cynomolgus monkey, in vivo

Row | SMILES | half-life [h]
20 | Cc1nc(Cc2ccc(-c3ccccc3)cc2)nc(C(=O)NCC(=O)O)c1O | 13

Test system: not listed separately
Experiment: Protein binding in Cynomolgous monkey assessed as assessed as unbound fraction
Type: ADME, Macaca fascicularis
Conditions: cynomolgus monkey

Row | SMILES | Fu [%]
21 | Cc1nc(Cc2ccc(-c3ccccc3)cc2)nc(C(=O)NCC(=O)O)c1O | 0.6

Test system: not listed separately
Experiment: Cmax in Cynomolgous monkey at 3 mg/kg,po
Type: ADME, organism-based, Macaca fascicularis
Conditions: cynomolgus monkey, in vivo

Row | SMILES | Cmax [ng/mL]
22 | Cc1nc(Cc2ccc(-c3ccccc3)cc2)nc(C(=O)NCC(=O)O)c1O | 28000

Molecular target: Egl nine homolog 1 (Homo sapiens, UniProt Q9GZT9)
Experiment: not given
Conditions: not given

Egl nine homolog 1, sequence (Q9GZT9 whole entry): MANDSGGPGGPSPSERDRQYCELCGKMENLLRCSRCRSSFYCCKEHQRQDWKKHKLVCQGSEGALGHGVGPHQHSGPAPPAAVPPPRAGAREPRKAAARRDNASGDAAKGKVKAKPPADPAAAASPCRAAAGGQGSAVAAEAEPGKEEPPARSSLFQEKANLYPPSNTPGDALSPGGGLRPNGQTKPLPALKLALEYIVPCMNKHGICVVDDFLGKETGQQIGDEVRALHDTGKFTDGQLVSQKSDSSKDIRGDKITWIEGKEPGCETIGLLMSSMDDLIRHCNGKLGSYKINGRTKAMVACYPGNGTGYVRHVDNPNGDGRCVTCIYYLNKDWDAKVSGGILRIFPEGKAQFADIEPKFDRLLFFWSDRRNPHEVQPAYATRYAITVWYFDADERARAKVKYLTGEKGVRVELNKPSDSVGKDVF

Row | SMILES | IC50 [µM]
23 | Cc1nc(Cc2ccc(F)cc2)c(O)c(C(=O)NCC(=O)O)n1 | 11
24 | Cc1nc(C(C)c2ccc(-c3ccccc3)cc2)nc(C(=O)NCC(=O)O)c1O (racemic) | 18
25 | Cc1nc(Cc2ccc(-c3ccccc3)cc2)nc(C(=O)N[C@@H](C)C(=O)O)c1O | 10
26 | Cc1nc(Cc2ccc(C(C)(C)C)cc2)nc(C(=O)NCC(=O)O)c1O | 3.9
27 | Cc1nc(Cc2cccc(-c3ccccc3)c2)nc(C(=O)NCC(=O)O)c1O | 20
28 | O=C(O)CNC(=O)c1nc(Cc2ccc(-c3ccccc3)cc2)nc(C(F)F)c1O | 4.1
29 | Cc1nc(Cc2ccc(-c3ccccc3)cc2)nc(C(=O)NCC(=O)O)c1O | 1.5
30 | Cc1nc(Cc2ccc(C(F)(F)F)cc2)nc(C(=O)NCC(=O)O)c1O | 11
31 | O=C(O)CNC(=O)c1nc(Cc2ccc(-c3ccccc3)cc2)ncc1O | > 100
32 | Cc1nc(Cc2ccc(Cl)cc2)nc(C(=O)NCC(=O)O)c1O | 17
33 | Cc1nc(Cc2ccc(-c3ccccc3)cc2)nc(C(=O)NCC(=O)O)c1N | > 100
34 | Cc1nc(Cc2ccc(-c3ccccc3)cc2)nc(C(=O)N[C@H](C)C(=O)O)c1O | > 100
35 | Cc1nc(C(F)(F)c2ccc(-c3ccccc3)cc2)nc(C(=O)NCC(=O)O)c1O | 55
36 | Cc1nc(Cc2ccc(-c3ccccc3)cc2)nc(C(=O)NCC(=O)O)c1S | 13
37 | CCc1nc(Cc2ccc(-c3ccccc3)cc2)nc(C(=O)NCC(=O)O)c1O | 7.3
38 | Cc1nc(Cc2ccc(-c3ccccc3)cc2)c(O)c(C(=O)NCC(=O)O)n1 | 10
39 | Cc1nc(CCc2ccc(F)cc2)c(O)c(C(=O)NCC(=O)O)n1 | 8.1
40 | Cc1nc(Cc2ccc(-c3ccccc3)cc2)nc(C(=O)NCC(=O)O)c1C(=O)O | > 100
41 | Cc1nc(C)c(O)c(C(=O)NCC(=O)O)n1 | 11
42 | Cc1nc(C(=O)NCC(=O)O)c(O)c(-c2ccc(F)cc2)n1 | 39
43 | Cc1nc(Cc2ccc(-c3ccccc3)cc2)nc(C(=O)NCC(=O)O)c1C | > 100
44 | Cc1nc(Cc2ccccc2-c2ccccc2)nc(C(=O)NCC(=O)O)c1O | 17

Test system: not listed separately
Experiment: Lipophilicity, logD of the compound
Type: physicochemical
Conditions: octanol/water

Row | SMILES | logD
45 | Cc1nc(Cc2ccc(-c3ccccc3)cc2)nc(C(=O)NCC(=O)O)c1O | 0.8

Test system: Cynomolgus monkey
Experiment: […] activity against Cynomolgous monkey assessed as increase of erythropoietin level in plasma at po administration measured after 12 hrs
Type: functional, organism-based
Conditions: Macaca fascicularis

Row | SMILES | Activity
46 | O=C(O)CNC(=O)c1nc(Cl)c2ccccc2c1O | Active
47 | Cc1nc(Cc2ccc(-c3ccccc3)cc2)nc(C(=O)NCC(=O)O)c1O | Active
